Results reported in US7915297B2, “Isoxazole derivatives and use thereof” (SK Holdings Co., Ltd., priority 2005, dated 2011).

Assays:
[1] = test system: Wnt/β-catenin signaling (β-catenin activity) in SW480 cell line; experiment: Cell-based Wnt agonist screening, TCF luciferase reporter, SW480 (TCF-FL); parameters: species or system human; details: Homo sapiens, % of LiCl (20 mM), 24 h, read-out: Max. Activity (%); for Emax at 1 µM: Con. 1 μM; for Emax at 30 µM: Con. 30 μM; for Emax at 120 µM: Con. 120 μM
Method in brief: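 HEK293 and SW480 lines stably carried a 5X TCF firefly luciferase reporter under G418 selection. Cells (8,000–15,000/well, RPMI 1640 with 5% FBS) were grown 24 h, then treated with compound for 24 h. Luciferase activity was expressed as percent of the 20 mM LiCl positive control.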

[2] = test system: ST-2, a murine bone marrow stromal T cell; experiment: Differentiation of ST2 cell line into osteoblasts, alkaline phosphatase activity; format: cell-based; details: Mus musculus, 96 h; ST-2 cells, 11 μM compound, 4 days; control treated only with ascorbic acid and β-glycerolphosphate = 100; read-out: ALP Activity (% Control)
Protocol: The derivatives synthesized according to the present invention were assayed for their ability to differentiate stem cells into osteoblasts. In this regard, ST-2, a murine bone marrow stromal T cell, was used to measure the activity of bone-specific alkaline phosphatase, a marker of early-stage osteoblast differentiation. In detail, the cell line was cultured in an MEM supplemented with penicillin-streptomycin (100 Units/mL) and heat-inactivated 5% fetal bovine serum under standard culture conditions (5% CO2, 37° C., 100% relative humidity). […] The suspension was diluted with the same medium to adjust the cell count to 5,000˜10,000 cells per well, and was moved in a 96-well microtiter, subsequently. After being incubated for 24 hrs, the cells were treated in a medium containing 50 μg/ml of ascorbic acid and 5 mM of β-glycerolphosphate with various concentrations of the isoxazole derivatives synthesized in Preparation Examples. During incubation for one to nine days, the Alkaline phosphatase activity was analyzed using a […] Assay kit (Promega, U.S.A.) according to the protocol described in the manual provided by the manufacturer. The activities were measured in cells which had been incubated at 11 μM of each of the compounds for 4 days. Data on the activities of the isoxazole derivatives synthesized are given in Tables 44 to 47 and are expressed as percentages of ALP relative to that measured in the control, which was treated only with ascorbic acid and β-glycerolphosphate. ALP activities according to the concentrations of Derivative (1) are depicted in FIG. 5.

Structure (SMILES) | Emax at 1 µM [1] | activity at 11 µM [2] | Emax at 30 µM [1] | Emax at 120 µM [1] | Emax at 10 µM ([1]; Con. 10 μM)
O=C(NCCCn1ccnc1)c1cc(-c2cc3ccccc3o2)on1 [Derivative (169), 5-benzofuran-2-yl-isoxazole-3-carboxylic acid (3-imidazol-1-yl-propyl)-amide] | 43% | 83% |  |  | 
O=C(NCCCn1cncn1)c1cc(-c2cc3ccccc3o2)on1 [Derivative (170), 5-benzofuran-2-yl-isoxazole-3-carboxylic acid (3-[1,2,4]triazol-1-yl-propyl)-amide] |  | 74% | 46% |  | 
O=C(NCCn1cncn1)c1cc(-c2cc3ccccc3o2)on1 [Derivative (171), 5-benzofuran-2-yl-isoxazole-3-carboxylic acid (2-[1,2,4]triazol-1-yl-ethyl)-amide] |  | 74% |  | 43% | 
O=C(NCCN1CCOCC1)c1cc(-c2ccco2)on1 [Derivative (175), 5-furan-2-yl-isoxazole-3-carboxylic acid (2-morpholin-4-yl-ethyl)-amide] | 383% | 767% |  |  | 
O=C(NCCN1CCNCC1)c1cc(-c2ccco2)on1 [Derivative (176), 5-furan-2-yl-isoxazole-3-carboxylic acid (2-piperazin-1-yl-ethyl)-amide] |  | 179% | 93% |  | 
CC(=O)N1CCN(CCNC(=O)c2cc(-c3ccco3)on2)CC1 [Derivative (178), 5-furan-2-yl-isoxazole-3-carboxylic acid [2-(4-acetyl-piperazin-1-yl)-ethyl]-amide] |  | 475% |  | 301% | 
O=C(NCCN1CCN(c2ccc(F)cc2)CC1)c1cc(-c2ccco2)on1 [Derivative (179), 5-furan-2-yl-isoxazole-3-carboxylic acid {2-[4-(4-fluorophenyl)-piperazin-1-yl]-ethyl}-amide] |  | 356% |  |  | 73%
O=C(NCCN1CCN(c2ccc([N+](=O)[O-])cc2)CC1)c1cc(-c2ccco2)on1 [Derivative (180), 5-furan-2-yl-isoxazole-3-carboxylic acid {2-[4-(4-nitrophenyl)-piperazin-1-yl]-ethyl}-amide] |  | 181% |  | 45% | 
COc1ccc(N2CCN(CCNC(=O)c3cc(-c4ccco4)on3)CC2)cc1 [Derivative (181), 5-furan-2-yl-isoxazole-3-carboxylic acid {2-[4-(4-methoxyphenyl)-piperazin-1-yl]-ethyl}-amide] | 73% | 681% |  |  | 
O=C(NCCN1CCN(c2ccccn2)CC1)c1cc(-c2ccco2)on1 [Derivative (182), 5-furan-2-yl-isoxazole-3-carboxylic acid [2-(4-pyridin-2-yl-piperazin-1-yl)-ethyl]-amide] |  | 887% | 413% |  | 
Cc1ccc(N2CCN(CCNC(=O)c3cc(-c4ccco4)on3)CC2)cc1 [Derivative (183), 5-furan-2-yl-isoxazole-3-carboxylic acid {2-[4-(4-methylphenyl)-piperazin-1-yl]-ethyl}-amide] |  | 127% |  | 114% | 
O=C(NCCN1CCN(c2ccc(Cl)cc2)CC1)c1cc(-c2ccco2)on1 [Derivative (184), 5-furan-2-yl-isoxazole-3-carboxylic acid {2-[4-(4-chlorophenyl)-piperazin-1-yl]-ethyl}-amide] |  | 126% | 70% |  | 
COc1cccc(N2CCN(CCNC(=O)c3cc(-c4ccco4)on3)CC2)c1 [Derivative (185), 5-furan-2-yl-isoxazole-3-carboxylic acid {2-[4-(3-methoxyphenyl)-piperazin-1-yl]-ethyl}-amide] |  | 714% | 810% |  | 
COc1ccc(N2CCN(CCNC(=O)c3cc(-c4ccco4)on3)CC2)cc1OC [Derivative (186), 5-furan-2-yl-isoxazole-3-carboxylic acid {2-[4-(3,4-dimethoxyphenyl)-piperazin-1-yl]-ethyl}-amide] |  | 272% | 553% |  | 
COc1ccc(N2CCN(CCNC(=O)c3cc(-c4ccco4)on3)CC2)c(OC)c1 [Derivative (187), 5-furan-2-yl-isoxazole-3-carboxylic acid {2-[4-(2,4-dimethoxyphenyl)-piperazin-1-yl]-ethyl}-amide] |  | 99% |  | 179% | 
COc1cc(OC)cc(N2CCN(CCNC(=O)c3cc(-c4ccco4)on3)CC2)c1 [Derivative (188), 5-furan-2-yl-isoxazole-3-carboxylic acid {2-[4-(3,5-dimethoxyphenyl)-piperazin-1-yl]-ethyl}-amide] | 200% | 151% |  |  | 
COc1cccnc1N1CCN(CCNC(=O)c2cc(-c3ccco3)on2)CC1 [Derivative (189), 5-furan-2-yl-isoxazole-3-carboxylic acid {2-[4-(3-methoxy-pyridin-2-yl)-piperazin-1-yl]-ethyl}-amide] |  | 220% | 238% |  | 
Cc1cccnc1N1CCN(CCNC(=O)c2cc(-c3ccco3)on2)CC1 [Derivative (190), 5-furan-2-yl-isoxazole-3-carboxylic acid {2-[4-(3-methyl-pyridin-2-yl)-piperazin-1-yl]-ethyl}-amide] |  | 269% |  | 372% | 
O=C(NCCN1CCN(c2ncccc2C(F)(F)F)CC1)c1cc(-c2ccco2)on1 [Derivative (191), 5-furan-2-yl-isoxazole-3-carboxylic acid {2-[4-(3-trifluoromethyl-pyridin-2-yl)-piperazin-1-yl]-ethyl}-amide] |  | 309% | 91% |  | 
O=C(NCCN1CCN(c2ncccn2)CC1)c1cc(-c2ccco2)on1 [Derivative (192), 5-furan-2-yl-isoxazole-3-carboxylic acid [2-(4-pyrimidin-2-yl-piperazin-1-yl)-ethyl]-amide] |  | 398% | 137% |  | 
COc1ccccc1N1CCN(CCNC(=O)c2cc(-c3ccco3)on2)CC1 [Derivative (193), 5-furan-2-yl-isoxazole-3-carboxylic acid {2-[4-(2-methoxyphenyl)-piperazin-1-yl]-ethyl}-amide] |  | 173% | 382% |  | 
O=C(NCCN(c1ccccc1)c1ccccc1)c1cc(-c2ccco2)on1 [Derivative (196), 5-furan-2-yl-isoxazole-3-carboxylic acid (2-diphenylamino-ethyl)-amide] |  | 77% | 35% |  | 
O=C(NCCNCc1ccccc1)c1cc(-c2ccco2)on1 [Derivative (197), 5-furan-2-yl-isoxazole-3-carboxylic acid (2-benzylamino-ethyl)-amide] |  | 118% |  | 84% | 
O=C(NCCNc1ccc(Cl)cc1)c1cc(-c2ccco2)on1 [Derivative (198), 5-furan-2-yl-isoxazole-3-carboxylic acid [2-(4-chloro-phenylamino)-ethyl]-amide] |  | 100% | 50% |  | 
CC(C)c1ccc(NCCNC(=O)c2cc(-c3ccco3)on2)cc1 [Derivative (199), 5-furan-2-yl-isoxazole-3-carboxylic acid [2-(4-isopropyl-phenylamino)-ethyl]-amide] |  | 63% | 45% |  | 
